Assays:
[1] = tested on: Target C; test: Gene panel canonical junction qPCR assay, Target C CJ mRNA (Table 7); assay type: cell-based, human; conditions: Homo sapiens, read-out: Target C CJ mRNA decrease IC50
Procedure, shortened: (§1)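 Read-out is the IC50 for loss of canonical-junction mRNA, fitted with a four-parameter logistic curve to percentage response. Response came from RT-qPCR on compound-treated A673 or K562 cell lysates, ΔCt against a housekeeping gene and normalized to DMSO.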

[2] = tested on: HTT; test: Gene panel canonical junction qPCR assay, HTT CJ mRNA (Table 7); assay type: cell-based, human; conditions: Homo sapiens, read-out: HTT CJ mRNA decrease IC50
Procedure, shortened: as §1

[3] = tested on: SMN2; test: Gene panel canonical junction qPCR assay, SMN2 CJ mRNA (Table 7); assay type: cell-based; conditions: Homo sapiens, read-out: SMN2 CJ mRNA decrease IC50
Procedure, shortened: as §1

[4] = tested on: MYB; test: Gene panel canonical junction qPCR assay, MYB CJ mRNA (Table 7); assay type: cell-based; conditions: Homo sapiens, read-out: MYB CJ mRNA decrease IC50
Procedure, shortened: as §1

[5] = tested on: MYB; test: RT-qPCR splicing assay, MYB AJ/CJ mRNA; assay type: cell-based; conditions: Homo sapiens, A673 or K562 cells, 24 hours; for IC50: decrease in canonical junction mRNA; for AC50: increase in alternative junction mRNA
Procedure, shortened: (§2)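 A673 or K562 cells were treated for 24 h at 37° C with an 11-point 3-fold compound series (top 10 uM, DMSO ≤0.25%). Lysates underwent RT-qPCR for the canonical (CJ) and alternative-exon (AJ) junctions, normalized to GAPDH, GUSB or PPIA, then to DMSO (ΔΔCt), giving RQ and percentage response.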

[6] = tested on: HTT; test: RT-qPCR splicing assay, HTT AJ/CJ mRNA; assay type: cell-based, human; conditions: Homo sapiens, A673 or K562 cells; for IC50: decrease in canonical junction mRNA; for AC50: increase in alternative junction mRNA
Procedure, shortened: as §2

IC50 [1] | IC50 [2] | IC50 [3] | IC50 [4] | IC50 [5] | IC50 ([6]; 24 h) | SMILES | AC50 [5] | AC50 ([6]; 24 h) | IC50 ([6]; 24 hours) | AC50 ([6]; 24 hours)
100 to 1000 nM | 100 to 1000 nM | 100 to 1000 nM | 1000 to 10000 nM | 1000 to 10000 nM | 100 to 1000 nM | COc1cc(-c2ccc3c(c2)COc2nc(N4CCC(NC5CCC5)C4)ccc2-3)cnn1 (stereo not shown) [Compound 280, N-cyclobutyl-1-[8-(6-methoxypyridazin-4-yl)-6H-isochromeno[3,4-b]pyridin-3-yl]pyrrolidin-3-amine] | 100 to 1000 nM | 100 to 1000 nM |  | 
100 to 1000 nM | < 100 nM | < 100 nM | 100 to 1000 nM | 100 to 1000 nM | < 100 nM | CCC(C)(C)NC1CCN(c2ccc3c(n2)OCc2cc(-c4cnnc(OC)c4)ccc2-3)C1 (stereo not shown) [Compound 281, 1-[8-(6-methoxypyridazin-4-yl)-6H-isochromeno[3,4-b]pyridin-3-yl]-N-(2-methylbutan-2-yl)pyrrolidin-3-amine] | 100 to 1000 nM | < 100 nM |  | 
100 to 1000 nM | 100 to 1000 nM | 100 to 1000 nM | 100 to 1000 nM | 100 to 1000 nM | 100 to 1000 nM | COc1cc(-c2ccc3c(c2)COc2nc(N4CCNCC4)ccc2-3)cnn1 [Compound 282, 3-methoxy-5-[3-(piperazin-1-yl)-6H-isochromeno[3,4-b]pyridin-8-yl] pyridazine] | 100 to 1000 nM | 100 to 1000 nM |  | 
1000 to 10000 nM | 100 to 1000 nM | 100 to 1000 nM | 1000 to 10000 nM | 1000 to 10000 nM | 100 to 1000 nM | COc1cc(-c2ccc3c(c2)COc2nc(N4CCN5CCCC5C4)ccc2-3)cnn1 (stereo not shown) [Compound 283] | 1000 to 10000 nM | 1000 to 10000 nM |  | 
> 10000 nM | 1000 to 10000 nM | 1000 to 10000 nM | > 10000 nM | > 10000 nM | 1000 to 10000 nM | COc1cc(-c2ccc3c(c2)COc2nc(N4CCC(N)CC4)ccc2-3)cnn1 [Compound 288] | > 10000 nM | 1000 to 10000 nM |  | 
100 to 1000 nM | 100 to 1000 nM | < 100 nM | 100 to 1000 nM | 100 to 1000 nM | 100 to 1000 nM | COc1cc(-c2ccc3c(c2)COc2nc(N4CCN[C@@H](C5CC5)C4)ccc2-3)cnn1 [Compound 296] | 100 to 1000 nM | 100 to 1000 nM |  | 
100 to 1000 nM | < 100 nM | < 100 nM | 100 to 1000 nM | 100 to 1000 nM | < 100 nM | COc1cc(-c2ccc3c(c2)COc2nc(N4CCN[C@H](C5CC5)C4)ccc2-3)cnn1 [Compound 297] | 100 to 1000 nM | 100 to 1000 nM |  | 
1000 to 10000 nM | 1000 to 10000 nM | 100 to 1000 nM | > 10000 nM | > 10000 nM | 1000 to 10000 nM | CNC1CCN(c2ccc3c(n2)OCc2cc(-c4cnnc(OC)c4)ccc2-3)CC1 [Compound 300, 1-[8-(6-methoxypyridazin-4-yl)-6H-isochromeno[3,4-b]pyridin-3-yl]-N-methylpiperidin-4-amine] | > 10000 nM | 1000 to 10000 nM |  | 
> 10000 nM | > 10000 nM | > 10000 nM | > 10000 nM | > 10000 nM | > 10000 nM | COc1cc(-c2ccc3c(c2)COc2nc(N4CCC(NC(C)(C)C)CC4)ccc2-3)cnn1 [Compound 302] | > 10000 nM | > 10000 nM |  | 
100 to 1000 nM | < 100 nM | < 100 nM | 100 to 1000 nM | 100 to 1000 nM | < 100 nM | COc1cc(-c2ccc3c(c2)COc2nc(N4CCN[C@@H](C(C)C)C4)ccc2-3)cnn1 [Compound 303] | 100 to 1000 nM | 100 to 1000 nM |  | 
100 to 1000 nM | < 100 nM | < 100 nM | 100 to 1000 nM | 100 to 1000 nM | < 100 nM | COc1cc(-c2ccc3c(c2)COc2nc(N4CCNC(C(C)(C)C)C4)ccc2-3)cnn1 (stereo not shown) [Compound 304] | 100 to 1000 nM | < 100 nM |  | 
1000 to 10000 nM | 100 to 1000 nM | 100 to 1000 nM | 1000 to 10000 nM | 1000 to 10000 nM | 100 to 1000 nM | COc1cc(-c2ccc3c(c2)COc2nc(N4CCC(N(C)CC5CC5)C4)ccc2-3)cnn1 (stereo not shown) [Compound 308] | 1000 to 10000 nM | 1000 to 10000 nM |  | 
1000 to 10000 nM | 100 to 1000 nM | 100 to 1000 nM | 100 to 1000 nM | 100 to 1000 nM | 100 to 1000 nM | CCN(C)C1CCN(c2ccc3c(n2)OCc2cc(-c4cnnc(OC)c4)ccc2-3)C1 (stereo not shown) [Compound 310] | 1000 to 10000 nM | 100 to 1000 nM |  | 
1000 to 10000 nM | 100 to 1000 nM | 100 to 1000 nM | 1000 to 10000 nM | 1000 to 10000 nM | 100 to 1000 nM | COc1cc(-c2ccc3c(c2)COc2nc(N4CCC(N(C)C(C)C)C4)ccc2-3)cnn1 (stereo not shown) [Compound 311] | 100 to 1000 nM | 100 to 1000 nM |  | 
> 10000 nM | 100 to 1000 nM | 100 to 1000 nM | 1000 to 10000 nM | 1000 to 10000 nM | 100 to 1000 nM | COc1cc(-c2ccc3c(c2)COc2nc(N4CCC(N5CCC5)C4)ccc2-3)cnn1 (stereo not shown) [Compound 312] | 1000 to 10000 nM | 1000 to 10000 nM |  | 

The next lines start with the compound.

SMILES | IC50 [1] | IC50 [2] | IC50 [3] | IC50 [4] | IC50 [5] | IC50 ([6]; 24 h) | AC50 [5] | AC50 ([6]; 24 h) | IC50 ([6]; 24 hours) | AC50 ([6]; 24 hours)
COc1cc(-c2ccc3c(c2)COc2nc(N4CC[C@@H](NC(C)(C)C)C4)ncc2-3)cnn1 [Compound 278] | 100 to 1000 nM | < 100 nM | < 100 nM | 100 to 1000 nM | 100 to 1000 nM | < 100 nM | 100 to 1000 nM | 100 to 1000 nM |  | 
COc1cc(-c2ccc3c(c2)COc2nc(N4CC[C@H](NC(C)(C)C)C4)ncc2-3)cnn1 [Compound 279] | 1000 to 10000 nM | 100 to 1000 nM | 100 to 1000 nM | 1000 to 10000 nM | 1000 to 10000 nM | 100 to 1000 nM | 1000 to 10000 nM | 100 to 1000 nM |  | 
CCc1cc(-c2ccc3c(c2)COc2nc(N4CCC(NC(C)(C)C)C4)ccc2-3)cnn1 (stereo not shown) [Compound 284, N-tert-butyl-1-[8-(6-ethylpyridazin-4-yl)-6H-isochromeno[3,4-b]pyridin-3-yl]pyrrolidin-3-amine] | > 10000 nM | > 10000 nM | 1000 to 10000 nM | > 10000 nM | > 10000 nM | > 10000 nM | > 10000 nM | > 10000 nM |  | 
COc1cc(-c2ccc3c(c2)COc2cc(N4CCC(NC(C)(C)C)C4)ncc2-3)cnn1 (stereo not shown) [Compound 289, N-(tert-butyl)-1-(8-(6-methoxypyridazin-4-yl)-6H-isochromeno [4,3-c]pyridin-3-yl)pyrrolidin-3-amine] | 1000 to 10000 nM | 100 to 1000 nM | < 100 nM | 100 to 1000 nM | 100 to 1000 nM | 100 to 1000 nM | 1000 to 10000 nM | 1000 to 10000 nM |  | 
COc1cnnc(-c2ccc3c(c2)COc2nc(N4CCC(NC(C)(C)C)C4)ccc2-3)c1 (stereo not shown) [Compound 292] | 1000 to 10000 nM | > 10000 nM | 1000 to 10000 nM | > 10000 nM | > 10000 nM | > 10000 nM | > 10000 nM | > 10000 nM |  | 
CN(c1ncc2c(n1)OCc1cc(-c3cn[nH]c3)ccc1-2)[C@@H]1C[C@H]2CC[C@@H](C1)N2 [Compound 294] | 100 to 1000 nM | < 100 nM | 100 to 1000 nM | 100 to 1000 nM | 100 to 1000 nM | < 100 nM | 1000 to 10000 nM | 100 to 1000 nM |  | 
COc1cc(-c2ccc3c(c2)COc2nc(N(C)[C@@H]4C[C@H]5CC[C@@H](C4)N5)ncc2-3)cnn1 [Compound 295] | 100 to 1000 nM | < 100 nM | < 100 nM | 100 to 1000 nM | 100 to 1000 nM | < 100 nM | 1000 to 10000 nM | < 100 nM |  | 
COc1cc(-c2ccc3c(c2)COc2nc(O[C@@H]4C[C@H]5CC[C@@H](C4)N5)ncc2-3)cnn1 [Compound 298] | 1000 to 10000 nM | 100 to 1000 nM | < 100 nM | 1000 to 10000 nM | 1000 to 10000 nM | 100 to 1000 nM | 100 to 1000 nM | 100 to 1000 nM |  | 
COc1cc(-c2ccc3c(c2)COc2nc(OC4CC(C)(C)NC(C)(C)C4)ncc2-3)cnn1 [Compound 299] | 1000 to 10000 nM | 100 to 1000 nM | 100 to 1000 nM | 1000 to 10000 nM | 1000 to 10000 nM | 100 to 1000 nM | 1000 to 10000 nM | 100 to 1000 nM |  | 
COc1cc(-c2ccc3c(c2)COc2nc(N4CCC(NC(C)C)CC4)ccc2-3)cnn1 [Compound 301, N-isopropyl-1-[8-(6-methoxypyridazin-4-yl)-6H-isochromeno[3,4-b]pyridin-3-yl] piperidin-4-amine] | 1000 to 10000 nM | 1000 to 10000 nM | 1000 to 10000 nM | 1000 to 10000 nM | 1000 to 10000 nM |  | 1000 to 10000 nM |  | 1000 to 10000 nM | 100 to 1000 nM
COc1cc(-c2ccc3c(c2)COc2nc(N4CCC(C)(NC(C)C)C4)ccc2-3)cnn1 (stereo not shown) [Compound 309] | 100 to 1000 nM | < 100 nM | < 100 nM | 100 to 1000 nM | 100 to 1000 nM | < 100 nM | 100 to 1000 nM | < 100 nM |  | 

Source: US20240400584A1, “COMPOUNDS AND METHODS FOR MODULATING SPLICING” (REMIX THERAPEUTICS INC., priority 2021, published 2024)
